Tested on: Trichoderma reesei
Test: T. reesei cell kill, CFU count on PDA plates
Assay type: cell-based
Settings: pH 4, 24 hours, 40° C.
Description: Sodium benzoate was added to separate T. reesei aliquots to a final concentration of 2.5 g/L sodium benzoate or 5 g/L sodium benzoate. The aliquots were then adjusted to pH 4 and incubated for 24 hours at 40° C. After 24 hours of incubation all aliquots were pH adjusted to 4.8 using 10% (w/w) sodium hydroxide. Each aliquot was then serially diluted with sterile water, spread plated onto PDA, and incubated at 25° C. The incubated PDA plates were then counted for CFU.
The aliquots were then adjusted to pH 4 and incubated for 24 hours at 40° C. After 24 hours of incubation all aliquots were pH adjusted to 4.8 using 10% (w/w) sodium hydroxide. Each aliquot was then serially diluted with sterile water, spread plated onto PDA, and incubated at 25° C. The incubated PDA plates were then counted for CFU.

Q: What does the source list for `O=C([O-])c1ccccc1.[Na+]` [sodium benzoate]?
A: log reduction of viable cells (2.5 g/L sodium benzoate): 5 log; CFU present after incubation (5 g/L sodium benzoate): less than 10 CFU; log reduction of viable cells (5 g/L sodium benzoate): 7 log

From patent US8679824B2, “Fermentation broth formulations” (Danisco US Inc., priority 2009, dated 2014)
